Reference: patent US12576084B2, “Methods for treating testicular and ovarian adrenal rest tumors” (Spruce Biosciences, Inc., priority 2018, dated 2026)

What was measured:
[1] = system: ACTH, 17OHP and androstenedione (A4) in participants with classic CAH; assay: Phase 2 open-label study in adults with classic CAH: change in ACTH, 17OHP and A4; format: in vivo, human
Method: (§1) An ongoing Phase 2 open-label study (Study Compound 2) is currently evaluating the safety and efficacy of Compound 1 dosed once daily for 6 weeks in adults with classic CAH. In the initial Cohort A of this study, all subjects are dosed starting at 200 mg/day for 14 days, escalating for each subject to 600 mg/day for 14 days, then 1000 mg/day for 14 days if the subject experiences no DLTs at the previous dose level. (FIGS. 2-3).
30% of subjects were in the normal range (*) after treatment with a CRF1 receptor antagonist.
50% of subjects were in the guideline range (*; 1200 ng/dL) after treatment with a CRF1 receptor antagonist.
50% of subjects were within the normal reference range after treatment with a CRF1 receptor antagonist.
(§2) The objectives of the study are: to assess the ability of Compound 1 to reduce excess ACTH and adrenal steroid production in participants with classic CAH on a stable gluococorticoid regimen; to evaluate the safety and tolerability of tildacerfont in participants with classic CAH; and to evaluate the pharmacokinetics (PK) of tildacerfont.
• Adult males and females 18 years or older • Diagnosis of classic CAH due to 21-hydroxylase deficiency • Morning 17OHP≥800 ng/dL, before taking any morning GC dose • On a stable regimen of gluococorticoid replacement for ≥30 days before enrollment Exclusion Criteria: • Clinically significant unstable medical condition, illness, or chronic disease within 30 days of screening • Clinically significant psychiatric disorder • History of bilateral adrenalectomy or hypopituitarism Study Design
FIG. 14 depicts the proof of concept and escalating QD dosing at 10 PM for Cohort A and the single dose level and BID dosing at 10 AM and 10 pm for Cohort B.
(§3) One participant withdrew early because of an occupation-related scheduling conflict. In Cohort B, 9 participants were enrolled and received at least one dose of Compound 1. […] Thus, baseline characteristics are calculated for n=8 in Cohort B. One participant in Cohort B was taking both HC and prednisone.

[2] = system: testicular adrenal rest tumors (TART); assay: TART size pre-treatment vs 6 weeks post-treatment in a patient with classic CAH; format: in vivo, human; settings: person with classic CAH, 6 weeks treatment
Source text: FIG. 10A-10B. Images of a patient with TART pre-treatment with a CRF1 antagonist (Compound 1) (A) and 6-weeks post-treatment with a CRF1 antagonist (Compound 1) (B).
FIGS. 10A-10B show approximately 25% shrinkage in TART in a person with classic congenital adrenal hyperplasia following 6 weeks treatment with a CRF1 receptor antagonist.

[3] = system: participants with classic CAH; assay: Phase 2 study in classic CAH: safety and tolerability; format: in vivo, human; settings: across both cohorts
Method: as §1, §2, §3

[4] = Phase 2 study in classic CAH: pharmacokinetics; format: in vivo, human; settings: 200 to 1000 mg QD, patients with CAH
Source text: FIG. 2. Graphic representation of pharmacokinetics (dose-proportional, adequate exposure at safe doses) in patients with CAH following 14-days of once daily dosing at each dose level with a CRF1 antagonist (Compound 1).
FIG. 3. Graphic representation of pharmacokinetics (dose-proportional, adequate exposure at safe doses) in patients with CAH following 14-days of once daily dosing at each dose level with a CRF1 antagonist (Compound 1).
as §1, §2

[5] = Phase 1 studies in healthy volunteers: pharmacokinetics; format: in vivo
Method: The specification of study drug dosing at 10 pm and after consumption of a snack is based on information from the Phase 1 studies in healthy volunteers. The plasma Cmax (maximum concentration) for Compound 1 in the Phase 1 studies occurred approximately 5 hours after dosing. Therefore, Compound 1 will be dosed daily at 10 pm in this study in order to achieve peak plasma study drug concentration at the time of day when most adrenal androgens are produced. […] Specific dose reduction criteria, strict individual treatment stopping criteria, and appropriate laboratory and medical assessments have been established to ensure subject safety. (FIGS. 1A-1B).
To date, a total of 53 subjects, all healthy adults aged 21 to 65 years, have been treated with at least 1 dose of Compound 1 in 2 Phase 1 studies. The first-in-human study of Compound 1 (Study I3C-FW-BLAA) evaluated single ascending doses of 2 mg to 800 mg. […] A subsequent study (Study I3C-FW-BLAB) evaluated repeat doses of 50 mg, 100 mg, or 200 mg Compound 1 once daily for 14 consecutive days.

healthy volunteers = assay: Phase 1 studies in healthy volunteers: safety and tolerability; format: in vivo
Source text: Clinical laboratory measures of testicular function (LH, FSH, inhibin B, and SHBG) will be assessed throughout this study to monitor the risk of testicular injury. Testicular ultrasounds and semen analysis will also be performed at screening/baseline and the end of the treatment period.
Clinical laboratory measures of liver chemistry will be assessed throughout this study, and strict individual treatment stopping criteria for liver chemistry findings are in place.

rats = assay: Repeat-dose oral toxicology study, 91 days, rats; format: in vivo, rat
Source text: (§4) The nonclinical safety profile of Compound 1 has been evaluated in repeat-dose range-finding and definitive toxicology studies of up to 91 days in duration in rats and dogs using the clinically relevant route (oral) and schedule of administration (once daily).

beagle dogs = assay: Repeat-dose oral toxicology study, 91 days, beagle dogs; format: in vivo, dog
Source text: as §4

male rats = assay: Fertility toxicology study in male rats; format: in vivo, rat
Method: Additionally, a fertility toxicology study was conducted in rats. In this study, male rats were administered oral Compound 1 once daily at 0, 5, 20, or 1000 mg/kg for 85 to 87 days (70 days before mating, during mating, and ≤4 days between mating and necropsy). Male reproductive performance (mean day of mating, mating and fertility indices, and conception rates) was unaffected by Compound 1 treatment.

[6] = Nonclinical studies: liver function tests; format: in vivo; settings: significantly higher doses
Source text: However, these events were not observed in the Phase 1 clinical studies. Clinical laboratory measures of liver chemistry will be assessed throughout this study, and strict individual treatment stopping criteria for liver chemistry findings are in place.

CRF1 receptor [7] = target: T1, CRF1 receptor (Homo sapiens, UniProt P34998); assay: In vitro and ex vivo CRF1 receptor binding studies
T1 sequence (P34998 24-415): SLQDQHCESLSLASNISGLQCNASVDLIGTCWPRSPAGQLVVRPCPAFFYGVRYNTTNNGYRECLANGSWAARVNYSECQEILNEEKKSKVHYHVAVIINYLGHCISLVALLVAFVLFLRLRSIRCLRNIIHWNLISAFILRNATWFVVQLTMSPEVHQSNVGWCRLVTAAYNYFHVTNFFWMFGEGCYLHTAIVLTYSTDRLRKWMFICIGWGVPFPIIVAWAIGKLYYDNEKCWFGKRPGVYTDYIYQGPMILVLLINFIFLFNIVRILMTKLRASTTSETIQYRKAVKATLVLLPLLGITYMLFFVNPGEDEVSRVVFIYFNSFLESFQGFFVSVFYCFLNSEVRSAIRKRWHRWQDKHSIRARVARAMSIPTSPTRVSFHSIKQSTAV
Method: (§5) FIG. 11A-11B. Graphic representation of an […] binding assay of a CRF1 antagonist (Compound 1); ^125I-sauvagine binding to rat cerebellar membranes one hour after oral administration of increasing Compound 1 doses (A) and in vivo inhibition of CRF-induced activity after treatment with a CRF1 antagonist; Compound 1 (oral, 10 mg/kg) (B).

CRF1 receptor [8] = target: T1, CRF1 receptor; assay: Inhibition of adenylate cyclase activity (CRF1 receptor-mediated downstream cascade); format: biochemical; settings: in vitro
[9] = system: CRF-induced locomotor behavior; assay: CRF-induced locomotor behavior after i.c.v. administration of CRF; format: in vivo; settings: oral, 10 mg/kg
Method: as §5

[10] = CAH subjects, FIGS. 4 and 5A-5B
[11] = CAH subjects, FIGS. 6 and 7A-7B
[12] = CAH subjects, FIGS. 8 and 9A-9B
[13] = Cohort A (200, 600, 1000 mg QD)
[14] = healthy human subjects, Phase 1

CCC(CC)c1cc(C)nc2c(-c3sc(N4CCOCC4)nc3Cl)c(C)nn12 [Compound 1, tildacerfont]
subjects in the normal range for ACTH after treatment [1, 10]: 30 % of subjects
subjects who demonstrated >25% reduction in ACTH [1, 10]: 70 % of subjects
subjects who demonstrated reduction in ACTH [1, 10]: 80 % of subjects
subjects in the guideline range (1200 ng/dL) for 17-OHP after treatment [1, 11]: 50 % of subjects
subjects who demonstrated >25% reduction in ACTH (printed in the 17-OHP paragraph) [1, 11]: 50 % of subjects
subjects who demonstrated reduction in 17-OHP [1, 11]: 80 % of subjects
subjects who demonstrated >25% reduction in androstenedione [1, 12]: 60 % of subjects
subjects within the normal reference range for androstenedione after treatment [1, 12]: 50 % of subjects
subjects who demonstrated reduction in androstenedione ([1]; CAH subjects, at various doses, FIGS. 8 and 9A-9B): 100 % of subjects
participants whose levels of 17OHP improved at ≥1 dose level [1, 13]: 8 out of 10
participants whose levels of A4 improved at ≥1 dose level [1, 13]: 10 out of 10
participants whose levels of ACTH improved at ≥1 dose level [1, 13]: 8 out of 10
Percentage change from baseline in 17OHP ([1]; Cohort A, 200 mg QD (Week 2)): +22.2 (±172.3) %
Percentage change from baseline in A4 ([1]; Cohort A, 200 mg QD (Week 2)): −12.1 (±47.4) %
Percentage change from baseline in ACTH ([1]; Cohort A, 200 mg QD (Week 2)): −25.7 (±51.6) %
Percentage change from baseline in 17OHP ([1]; Cohort A, 600 mg QD (Week 4)): −23.7 (±64.2) %
Percentage change from baseline in A4 ([1]; Cohort A, 600 mg QD (Week 4)): −33.2 (±36.5) %
Percentage change from baseline in ACTH ([1]; Cohort A, 600 mg QD (Week 4)): −60.1 (±37.5) %
Percentage change from baseline in 17OHP ([1]; Cohort A, 1000 mg QD (Week 6)): −13.8 (±74.7) %
Percentage change from baseline in A4 ([1]; Cohort A, 1000 mg QD (Week 6)): −28.6 (±44.6) %
Percentage change from baseline in ACTH ([1]; Cohort A, 1000 mg QD (Week 6)): −32.7 (±47.0) %
participants whose levels of 17OHP improved at ≥1 dose level ([1]; Cohort B (200 mg BID)): 6 out of 7
participants whose levels of A4 improved at ≥1 dose level ([1]; Cohort B (200 mg BID)): 6 out of 8
participants whose levels of ACTH improved at ≥1 dose level ([1]; Cohort B (200 mg BID)): 5 out of 7
Percentage change from baseline in 17OHP ([1]; Cohort B, 200 mg BID (Weed 2)): −47.8 (±63.3) %
Percentage change from baseline in A4 ([1]; Cohort B, 200 mg BID (Weed 2)): −16.0 (±81.4) %
Percentage change from baseline in ACTH ([1]; Cohort B, 200 mg BID (Weed 2)): −36.5 (±58.0) %
shrinkage in TART [2]: approximately 25%
most common type of adverse event (AE) [3]: gastrointestinal disorders
serious AEs and AEs leading to withdrawal [3]: no serious AEs and no AEs leading to withdrawal
tolerability [3]: generally well tolerated
PK profile [4]: predictable, dose-dependent PK profile
study drug absorption in a fasted state [5]: minimal study drug absorption
laboratory abnormalities in liver function tests (LFTs) (healthy volunteers; Phase 1 clinical studies): not observed
alterations in safety laboratory values, vital signs, or electrocardiograms (ECGs) (healthy volunteers; Phase 1 studies): no clinically significant alterations
adverse events, single ascending doses (healthy volunteers; Study I3C-FW-BLAA, 2 mg to 800 mg, small number of subjects): diarrhea and headache of mild or moderate severity
adverse events, repeat doses (healthy volunteers; Study I3C-FW-BLAB, 50, 100 or 200 mg once daily for 14 days, small number of subjects): dyspnea, rhinorrhea, palpitations, and headache
SAEs, AEs leading to discontinuation, dose-limiting toxicities (healthy volunteers; [14]): no SAEs, AEs leading to discontinuation, or dose-limiting toxicities (DLTs)
tolerability (healthy volunteers; [14]): well tolerated
effects on clinical laboratory markers of testicular function (LH and FSH) (healthy volunteers; healthy male volunteers, up to 200 mg per day for 14 consecutive days): no effects
maximum tolerated dose (healthy volunteers; humans): has not been reached
reversibility of findings (rats; 6-week treatment-free recovery period): reversible
testicular effects (rats; high-dose 2,000 mg/kg/day): reversible testicular effects (degeneration/atrophy)
toxicologic findings (rats; oral once daily, 91 days, up to 2000 mg/kg/day): all mild and limited to the male reproductive tract
reversibility of findings (beagle dogs; beagle dogs, 6-week treatment-free recovery period): reversible
toxicologic findings (beagle dogs; beagle dogs, oral once daily, 91 days, up to 2000 mg/kg/day): all mild and limited to the male reproductive tract
effects on the thyroid gland (beagle dogs; dogs, 91 days, high-dose 2,000 mg/kg/day): effects on the thyroid gland were noted
testicular effects (beagle dogs; dogs, high-dose 2,000 mg/kg/day): reversible testicular effects (degeneration/atrophy)
male reproductive performance (mean day of mating, mating and fertility indices, conception rates) (male rats; male rats, oral once daily 5, 20 or 1000 mg/kg for 85 to 87 days): unaffected
impairment in fertility (male rats; male reproductive studies in rodents, highest dose tested 1,000 mg/kg/day): no impairment in fertility
ovarian and uterine effects in untreated females mated with treated males (male rats; rats): no ovarian and uterine effects
laboratory abnormalities in liver function tests (LFTs) [6]: have been observed at significantly higher doses
affinity and selectivity for the hCRF1 receptor (CRF1 receptor [7]): high affinity and selective for the hCRF1 receptor
inhibition of adenylate cyclase activity (CRF1 receptor [8]): functional potency to inhibit adenylate cyclase activity
inhibition of CRF-induced locomotor behavior [9]: significantly inhibit
